Laboratory results as given in patent publication US20060078919A1, “Diagnostic test kit and methods of diagnosis and treatment of helicobacter SPP. associated infections” (Harry C. Gurney Janice Gurney, priority 2004, published 2006).

System: Helicobacter infection
Experiment: Vac A treatment of patients with pemphygus, allergic dermatitis and atopy
Assay type: in vivo
Conditions: more chronic and persistent cases, 25 to 75 mg bid
Description: Vacuolating Toxin A (recombinant Vac A; Austral Biologicals, catalog number HPA-5010-4) at 0.01 mg/ml in bacteriostatic water and 0.2 ml was injected subcutaneously 2-6 times per day at intervals of at least one hour to patients with various conditions associated with evidence of Helicobacter infection.

## CN(C)CCOC(c1ccccc1)c1ccccc1 [diphenhydramine]
  use as supplement to Vac A therapy: used successfully
